In test [1] the test system is Staphylococcus epidermidis. Briefly: Antibacterial activity against Methicillin-sensitive Staphylococcus epidermidis ATCC 12228 assessed as bacterial growth inhibition incubated for 20 to 24 hrs by microbroth serial dilution assay. The format is functional. Conditions: time 20-24 hrs.
Test [2] relates to Staphylococcus epidermidis. Briefly: Selectivity ratio of MBC for antibacterial activity against Methicillin-sensitive Staphylococcus epidermidis […] to MIC for antibacterial activity against Methicillin-sensitive Staphylococcus epidermidis […]. The format is functional.
Test [3] concerns Staphylococcus aureus. The test can be described thus: Antibacterial activity against Staphylococcus aureus ATCC 25923 assessed as bacterial growth inhibition incubated for 20 to 24 hrs by microbroth serial dilution assay. The format is functional. As to conditions: time 20-24 hrs. For orientation: In broth dilution the organism is exposed to a series of concentrations in liquid medium.

Test [4] concerns Staphylococcus aureus. The test can be described thus: Antibacterial activity against Methicillin-sensitive Staphylococcus aureus ATCC 29213 assessed as bacterial growth inhibition incubated for 20 to 24 hrs by microbroth serial dilution assay.
Test [5] has as its system Staphylococcus aureus. Briefly: Antibacterial activity against Methicillin-resistant Staphylococcus aureus ATCC 43300 assessed as bacterial growth inhibition incubated for 20 to 24 hrs by microbroth serial dilution assay. The format is functional. Conditions: time 20-24 hrs.
The subject of test [6] is Staphylococcus aureus. The test can be described thus: Selectivity ratio of MBC for antibacterial activity against Methicillin-sensitive Staphylococcus aureus ATCC 29213 to MIC for antibacterial activity against Methicillin-sensitive Staphylococcus aureus ATCC 29213.
For test [7], the system named is Staphylococcus aureus. The test can be described thus: Antibacterial activity against Methicillin-resistant Staphylococcus aureus ATCC 33591 assessed as bacterial growth inhibition incubated for 20 to 24 hrs by microbroth serial dilution assay. As to conditions: time 20-24 hrs. It is filed as functional.
Test [8] has as its system Staphylococcus aureus. Briefly: Selectivity ratio of MBC for antibacterial activity against Staphylococcus aureus to MIC for antibacterial activity against Staphylococcus aureus. The format is functional.
The subject of test [9] is Staphylococcus epidermidis. Briefly: Antibacterial activity against Methicillin-resistant Staphylococcus epidermidis ATCC 51625 assessed as bacterial growth inhibition incubated for 20 to 24 hrs by microbroth serial dilution assay. It is filed as functional. As to conditions: time 20-24 hrs.

Converted amounts (≈) assume the structure as drawn. Some results are limits rather than exact numbers.

We go through ten compounds from ChEMBL document CHEMBL5247680, “Design, Synthesis, and Biological Activity of Thioguanine-Modified Pleuromutilin Derivatives” (ACS Med Chem Lett, 2023).

As for `C=C[C@]1(C)C[C@@H](OC(=O)CSc2nc(NC(=O)CN3CCN(C)CC3)nc3[nH]cnc23)[C@@]2(C)C3C(=O)CC[C@@]3(CC[C@H]2C)[C@@H](C)[C@@H]1O` (stereo not given in full), the MIC (usually the least concentration at which growth counts as inhibited) was 4 µg/mL (≈ 5.99 µM) in test [1]; 16 µg/mL (≈ 24 µM) with Staphylococcus aureus [3]; 8 µg/mL (≈ 12 µM) in the test with Staphylococcus aureus [4]; 32 µg/mL (≈ 47.9 µM) with Staphylococcus aureus [5]; 16 µg/mL (≈ 24 µM) in the test with Staphylococcus aureus [7]; 1 µg/mL (≈ 1.5 µM) in test [9]. Moreover, the Ratio in [2] is reported as greater than 4; in the test with Staphylococcus aureus [6] it was 4; in the test on Staphylococcus aureus [8], greater than 4.

In the case of `C=C[C@]1(C)C[C@@H](OC(=O)CSc2nc(NC(=O)CN3CCCCC3)nc3[nH]cnc23)[C@@]2(C)C3C(=O)CC[C@@]3(CC[C@H]2C)[C@@H](C)[C@@H]1O` (stereo not given in full), the minimal inhibitory concentration (MIC) was determined as 0.5 µg/mL (≈ 0.766 µM) in test [1]; 0.0625 µg/mL (≈ 0.0957 µM) with Staphylococcus aureus [3]; 0.25 µg/mL (≈ 0.383 µM) in the test on Staphylococcus aureus [4]; 0.125 µg/mL (≈ 0.191 µM) with Staphylococcus aureus [5]; 0.125 µg/mL (≈ 0.191 µM) with Staphylococcus aureus [7]; 0.5 µg/mL (≈ 0.766 µM) in test [9]. Moreover, the Ratio (in test [2]; in the test on Staphylococcus aureus [8]) was greater than 4 in each case.

Consider `C=C[C@]1(C)C[C@@H](OC(=O)CSc2nc(N)nc3c2ncn3C(=O)NCc2cccc([N+](=O)[O-])c2)[C@@]2(C)C3C(=O)CC[C@@]3(CC[C@H]2C)[C@@H](C)[C@@H]1O` (stereo not given in full), for which the minimal inhibitory concentration (MIC) in [1] is less than 0.0078 µg/mL; in the test with Staphylococcus aureus [3], 0.0625 µg/mL (≈ 0.0885 µM); in the test with Staphylococcus aureus [4], 0.0625 µg/mL (≈ 0.0885 µM); in the test with Staphylococcus aureus [5], 0.0625 µg/mL (≈ 0.0885 µM); in the test on Staphylococcus aureus [7] it was 0.0312 µg/mL (≈ 0.0443 µM); in test [9], 0.0625 µg/mL (≈ 0.0885 µM). Moreover, the Ratio in [2] is greater than 4; with Staphylococcus aureus [6], 4; in the test on Staphylococcus aureus [8], greater than 4.

As for `C=C[C@]1(C)C[C@@H](OC(=O)CSc2nc(NC(=O)CCl)nc3[nH]cnc23)[C@@]2(C)C3C(=O)CC[C@@]3(CC[C@H]2C)[C@@H](C)[C@@H]1O` (stereo not given in full), the MIC came out at 0.0156 µg/mL (≈ 0.0258 µM) in test [1]; 0.5 µg/mL (≈ 0.828 µM) in the test on Staphylococcus aureus [3]; 0.5 µg/mL (≈ 0.828 µM) in the test with Staphylococcus aureus [4]; 0.5 µg/mL (≈ 0.828 µM) in the test with Staphylococcus aureus [5]; 0.5 µg/mL (≈ 0.828 µM) with Staphylococcus aureus [7]; 0.25 µg/mL (≈ 0.414 µM) in test [9]. The Ratio (in test [2]; in the test on Staphylococcus aureus [8]) was greater than 4 throughout.

Take `C=C[C@]1(C)C[C@@H](OC(=O)CSc2nc(NC(=O)CNC3CCOCC3)nc3[nH]cnc23)[C@@]2(C)C3C(=O)CC[C@@]3(CC[C@H]2C)[C@@H](C)[C@@H]1O` (stereo not given in full): the MIC turned out to be 2 µg/mL (≈ 2.99 µM) in test [1]; 0.5 µg/mL (≈ 0.748 µM) with Staphylococcus aureus [3]; 8 µg/mL (≈ 12 µM) in the test with Staphylococcus aureus [4]; 16 µg/mL (≈ 23.9 µM) with Staphylococcus aureus [5]; 0.5 µg/mL (≈ 0.748 µM) with Staphylococcus aureus [7]; 1 µg/mL (≈ 1.5 µM) in test [9]. Further, the Ratio (in test [2]; with Staphylococcus aureus [8]) was greater than 4 throughout.

Regarding `C=C[C@]1(C)C[C@@H](OC(=O)CSc2nc(N)nc3c2ncn3C(=O)NCCc2ccccc2)[C@@]2(C)C3C(=O)CC[C@@]3(CC[C@H]2C)[C@@H](C)[C@@H]1O` (stereo not given in full), in [1], the MIC is less than 0.0078 µg/mL.

In the case of `C=C[C@]1(C)C[C@@H](OC(=O)CSc2nc(N)nc3c2ncn3C(=O)NCc2ccc(OC)cc2)[C@@]2(C)C3C(=O)CC[C@@]3(CC[C@H]2C)[C@@H](C)[C@@H]1O` (stereo not given in full), the MIC in test [1] is less than 0.0312 µg/mL; in the test on Staphylococcus aureus [3] it was 0.125 µg/mL (≈ 0.181 µM); in the test with Staphylococcus aureus [4], 0.0625 µg/mL (≈ 0.0905 µM); in the test with Staphylococcus aureus [5], 0.0625 µg/mL (≈ 0.0905 µM); in the test with Staphylococcus aureus [7], 0.0625 µg/mL (≈ 0.0905 µM); in test [9], 0.0312 µg/mL (≈ 0.0452 µM). In addition, the Ratio (in [2]; in the test on Staphylococcus aureus [8]) was greater than 4 throughout.

For `C=C[C@]1(C)C[C@@H](OC(=O)CSc2nc(N)nc3c2ncn3C(=O)NCc2ccccc2)[C@@]2(C)C3C(=O)CC[C@@]3(CC[C@H]2C)[C@@H](C)[C@@H]1O` (stereo not given in full), the MIC was less than 0.0078 µg/mL in test [1]; 0.0312 µg/mL (≈ 0.0473 µM) with Staphylococcus aureus [3]; 0.0625 µg/mL (≈ 0.0946 µM) in the test with Staphylococcus aureus [4]; 0.0625 µg/mL (≈ 0.0946 µM) in the test with Staphylococcus aureus [5]; 0.0312 µg/mL (≈ 0.0473 µM) with Staphylococcus aureus [7]; 0.0625 µg/mL (≈ 0.0946 µM) in test [9]. Also, the Ratio (in test [2]; in the test with Staphylococcus aureus [8]) was greater than 4 in each case.

In the case of `C=C[C@]1(C)C[C@@H](OC(=O)CSc2nc(N)nc3c2ncn3C(=O)c2ccc([N+](=O)[O-])cc2)[C@@]2(C)C3C(=O)CC[C@@]3(CC[C@H]2C)[C@@H](C)[C@@H]1O` (stereo not given in full), the MIC in test [1] is less than 0.0078 µg/mL; with Staphylococcus aureus [3] it was 0.125 µg/mL (≈ 0.185 µM); with Staphylococcus aureus [4], 0.0625 µg/mL (≈ 0.0923 µM); in the test with Staphylococcus aureus [5], 0.0625 µg/mL (≈ 0.0923 µM); with Staphylococcus aureus [7], 0.125 µg/mL (≈ 0.185 µM); in [9] it was 0.0625 µg/mL (≈ 0.0923 µM). Also, the Ratio (in test [2]; in the test on Staphylococcus aureus [8]) was greater than 4 each time.

For the compound `C=C[C@]1(C)C[C@@H](OC(=O)CSc2nc(NC(=O)CN3CCNCC3)nc3[nH]cnc23)[C@@]2(C)C3C(=O)CC[C@@]3(CC[C@H]2C)[C@@H](C)[C@@H]1O` (stereo not given in full), the MIC was 4 µg/mL (≈ 6.12 µM) in test [1]; 32 µg/mL (≈ 48.9 µM) in the test with Staphylococcus aureus [3]; 32 µg/mL (≈ 48.9 µM) in the test with Staphylococcus aureus [4]; 64 µg/mL (≈ 97.9 µM) with Staphylococcus aureus [5]; 32 µg/mL (≈ 48.9 µM) in the test on Staphylococcus aureus [7]; 16 µg/mL (≈ 24.5 µM) in test [9]. Further, the Ratio (in [2]; with Staphylococcus aureus [8]) was greater than 4 each time.
